How the values were obtained:
[1] = biological target: T1, Acetylcholinesterase (Bos taurus) (UniProt P23795); test: Inhibition of bovine AChE at 50 uM by Ellman's method
T1 sequence (whole entry): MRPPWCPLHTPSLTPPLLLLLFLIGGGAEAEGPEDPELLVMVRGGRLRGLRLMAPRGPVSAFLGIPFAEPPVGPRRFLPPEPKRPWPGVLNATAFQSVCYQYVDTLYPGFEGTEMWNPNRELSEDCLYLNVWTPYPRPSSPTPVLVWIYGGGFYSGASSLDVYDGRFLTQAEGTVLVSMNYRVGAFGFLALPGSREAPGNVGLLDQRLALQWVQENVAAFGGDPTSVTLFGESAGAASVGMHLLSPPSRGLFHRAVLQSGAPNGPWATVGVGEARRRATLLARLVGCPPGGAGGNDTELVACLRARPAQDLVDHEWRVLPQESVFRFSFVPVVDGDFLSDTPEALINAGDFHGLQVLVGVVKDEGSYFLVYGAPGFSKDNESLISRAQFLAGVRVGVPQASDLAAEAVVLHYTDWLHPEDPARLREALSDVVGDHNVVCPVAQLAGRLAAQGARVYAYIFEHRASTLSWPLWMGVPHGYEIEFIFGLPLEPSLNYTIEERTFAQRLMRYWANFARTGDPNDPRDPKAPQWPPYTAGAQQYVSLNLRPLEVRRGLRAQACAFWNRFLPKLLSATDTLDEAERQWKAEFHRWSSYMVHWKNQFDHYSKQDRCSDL

[2] = biological target: T2, Acetylcholinesterase (Bos taurus, UniProt P23795)
T2 sequence (P23795 whole entry): T1 sequence (whole entry)
Description: Inhibition of bovine AChE by Ellman's method

[3] = Selectivity index, IC50 for equine BChE to IC50 for bovine AChE by Ellman's method
[4] = biological target: Cholinesterase (Equus caballus, UniProt P81908)
Sequence of Cholinesterase (P81908 whole entry): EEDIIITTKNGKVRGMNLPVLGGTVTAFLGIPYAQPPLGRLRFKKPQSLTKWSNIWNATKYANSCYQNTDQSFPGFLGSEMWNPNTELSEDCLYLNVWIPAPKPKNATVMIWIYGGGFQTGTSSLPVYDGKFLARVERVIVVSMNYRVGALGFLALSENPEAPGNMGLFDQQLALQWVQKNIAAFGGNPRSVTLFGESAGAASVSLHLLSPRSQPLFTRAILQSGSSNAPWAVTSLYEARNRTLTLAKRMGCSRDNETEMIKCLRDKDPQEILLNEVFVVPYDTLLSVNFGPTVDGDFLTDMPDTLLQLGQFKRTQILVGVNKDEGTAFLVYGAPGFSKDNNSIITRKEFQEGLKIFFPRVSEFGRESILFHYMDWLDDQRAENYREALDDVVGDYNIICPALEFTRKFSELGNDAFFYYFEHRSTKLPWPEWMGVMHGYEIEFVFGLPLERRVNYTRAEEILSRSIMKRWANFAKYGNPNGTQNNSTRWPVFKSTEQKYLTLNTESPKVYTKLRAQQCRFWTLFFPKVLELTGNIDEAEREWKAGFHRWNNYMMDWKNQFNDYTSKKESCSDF
Description: Inhibition of equine BChE by Ellman's method

[5] = biological target: Cholinesterase (Equus caballus) (UniProt P81908); test: Inhibition of equine BChE at 50 uM by Ellman's method
Sequence of Cholinesterase (Equus caballus) (P81908 whole entry): as above

[6] = biological target: T1, Acetylcholinesterase (Bos taurus); test: Inhibition of bovine AChE at 10 uM by Ellman's method
[7] = biological target: Cholinesterase (Equus caballus) (UniProt P81908); test: Inhibition of equine BChE at 10 uM by Ellman's method

**Q.** For `CN(Cc1ccccc1)c1cc(O)cc(OCCCOc2cc(O)cc(N(C)Cc3ccccc3)c2)c1`, which inhibition [1] is on record?
**A.** 3%

**Q.** Which results are given for `Cc1c(C)c2ccc(OCCCOc3cc(O)cc([N+](C)(C)C)c3)cc2oc1=O`?
**A.** IC50 [2]: 2.1 nM; Selectivity Index [3]: 505; IC50 [4]: 1060 nM

**Q.** With `C[N+](C)(C)c1cc(O)cc(OCCCOc2cc(O)cc([N+](C)(C)C)c2)c1` as the compound, how does the IC50 [2] read?
**A.** 0.49 nM

**Q.** What about the Selectivity Index [3] of the same compound?
**A.** 1460

**Q.** What about the IC50 [4] of the same compound?
**A.** 718 nM

**Q.** Which IC50 [2] does the source give for `Cc1c(C)c2ccc(OCCCCOc3cc(O)cc(N(C)C)c3)cc2oc1=O` here?
**A.** 275 nM

**Q.** What about the inhibition [5] of the same compound?
**A.** 25%

**Q.** What does the source list for `CN(Cc1ccccc1)c1cc(O)cc(OCCCCOc2cc(O)cc(N(C)Cc3ccccc3)c2)c1`?
**A.** inhibition [6]: 14%; inhibition [1]: 3%

**Q.** For `C=CC[N+](C)(C)c1ccc(CCC(=O)CCc2ccc([N+](C)(C)CC=C)cc2)cc1`, which IC50 [2] is on record?
**A.** 8 nM

**Q.** Which IC50 [2] does the source give for `CN(C)c1cc(O)cc(OCCCCOc2cc(O)cc(N(C)C)c2)c1` here?
**A.** 6460 nM

**Q.** What about the inhibition [5] of the same compound?
**A.** 25%

**Q.** With `C[N+](C)(C)c1cccc(OCCCCOc2cccc([N+](C)(C)C)c2)c1` as the compound, how does the IC50 [2] read?
**A.** 158 nM

**Q.** What about the Selectivity Index [3] of the same compound?
**A.** 15

**Q.** What about the IC50 [4] of the same compound?
**A.** 2340 nM

**Q.** Which IC50 [2] does the source give for `COc1ccc2c(C)c(C)c(=O)oc2c1` here?
**A.** 42000 nM

**Q.** And the inhibition [7]?
**A.** 25%

**Q.** With `C[N+](C)(C)c1cccc(O)c1` as the compound, how does the IC50 [2] read?
**A.** 12000 nM

**Q.** And the inhibition [7]?
**A.** 13%

**Q.** Which IC50 [4] does the source give for `C[N+](C)(C)c1cc(O)cc(OCCCCOc2cc(O)cc([N+](C)(C)C)c2)c1` here?
**A.** 715 nM

**Q.** For `CN(C)c1cc(O)cc(OCCCCOc2cc(O)cc(N(C)Cc3ccccc3)c2)c1`, which inhibition [6] is on record?
**A.** 40%

**Q.** For `CC[N+](CC)(CCNC(=O)C(=O)NCC[N+](CC)(CC)Cc1ccccc1Cl)Cc1ccccc1Cl` [AMBENONIUM], which IC50 [2] is on record?
**A.** 0.12 nM

**Q.** Which inhibition [6] does the source give for `Cc1c(C)c2ccc(OCCCOc3cc(O)cc(N(C)Cc4ccccc4)c3)cc2oc1=O` here?
**A.** 8%

**Q.** For `Cc1c(C)c2ccc(OCCCCOc3cc(O)cc([N+](C)(C)C)c3)cc2oc1=O`, which IC50 [2] is on record?
**A.** 1 nM

**Q.** What about the Selectivity Index [3] of the same compound?
**A.** 708

**Q.** What about the IC50 [4] of the same compound?
**A.** 708 nM

**Q.** For `CN(C)c1cc(O)cc(OCCCOc2cc(O)cc(N(C)C)c2)c1`, which IC50 [2] is on record?
**A.** 1910 nM

**Q.** Which IC50 [2] does the source give for `Cc1c(C)c2ccc(OCCCOc3cc(O)cc(N(C)C)c3)cc2oc1=O` here?
**A.** 871 nM

**Q.** With `Cc1c(C)c2ccc(OCCCCOc3cc(O)cc(N(C)Cc4ccccc4)c3)cc2oc1=O` as the compound, how does the inhibition [6] read?
**A.** 15%

**Q.** Which IC50 [2] does the source give for `CN(C)c1cc(O)cc(OCCCOc2cc(O)cc(N(C)Cc3ccccc3)c2)c1` here?
**A.** 6170 nM

**Q.** Which results are given for `C[N+](C)(C)c1cc(O)cc(OCCCCOc2cc(O)cc([N+](C)(C)Cc3ccccc3)c2)c1`?
**A.** IC50 [2]: 6560 nM; inhibition [7]: 42%

— ChEMBL document CHEMBL1155790 (Bioorg Med Chem, 2008)
